Experimental data published in US7081449B2, “Pyrido[2,3-d]pyrimidine and pyrimido[4,5-d]pyrimidine nucleosides” (Valeant Research & Development, priority 2000, dated 2006).

Experiments:
Format in all cases: cell-based
[1] = test system: Breast: MCF 7, NCI/ADR-RES, MDA-MB-435, BT-549, T-47D; experiment: Determination of EC50 in cancer cells, breast; details: Breast tumor cell lines; incubated at least 24 hours
Description: (§1) Cancer cells were incubated with 4-amino-5-oxo-8-(β-D-ribofuranosyl)pyrido[2,3-d]pyrimidine at various concentrations for a period of at least 24 hours and EC50 was determined. Table 1 gives in vitro activity of 4-amino-5-oxo-8-(β-D-ribofuranosyl)pyrido[2,3-d]pyrimidine in nM concentrations.

Prostate: PC-3, DU-145 = experiment: Determination of EC50 in cancer cells, prostate; details: Homo sapiens, Prostate tumor cell lines, incubated at least 24 hours
Description: as §1

[2] = test system: Kidney: 786-0, A498, ACHN, CAKI-1, RXF 393, UO-31; experiment: Determination of EC50 in cancer cells, kidney; details: Kidney tumor cell lines; incubated at least 24 hours
Description: as §1

[3] = test system: Ovarian: IGROV1, OVCAR-3, OVCAR-4, OVCAR-5, SK-OV-3; experiment: Determination of EC50 in cancer cells, ovarian; details: Ovarian tumor cell lines; incubated at least 24 hours
Description: as §1

[4] = test system: Melanoma: LOX IM VI, MALME-3M, M14, SK-MEL-2, SK-MEL-28, ACC-257, UACC-62; experiment: Determination of EC50 in cancer cells, melanoma; details: Melanoma cell lines; incubated at least 24 hours
Description: as §1

[5] = test system: CNS: SF-268, SF-295, SF-539, SNB-19, SNB-75, U251; experiment: Determination of EC50 in cancer cells, CNS; details: CNS tumor cell lines; incubated at least 24 hours
Description: as §1

[6] = test system: Colon: SW-620, KM 12, HT29, HCT-15, CHCT-116, HCC-2998, COLO-205; experiment: Determination of EC50 in cancer cells, colon; details: Colon tumor cell lines; incubated at least 24 hours
Description: as §1

[7] = test system: Lung: NCI-H522, NCI-H460, NCI-H322M, NCI-H23, HOP-92, HOP-62, EKVX, A549; experiment: Determination of EC50 in cancer cells, lung; details: Lung tumor cell lines; incubated at least 24 hours
Description: as §1

[8] = test system: Leukemia: SR, RPMI 8226, MOLT-4, K-562, HL-60, CCRF-CEM; experiment: Determination of EC50 in cancer cells, leukemia; details: Leukemia cell lines; incubated at least 24 hours
Description: as §1

[9] = test system: Liver: PLC/PRF5, Hep3B, Huh7; experiment: Determination of EC50 in cancer cells, liver; details: Liver tumor cell lines; incubated at least 24 hours
Description: as §1

Pancreas: PaCa-2, PANC-1 = experiment: Determination of EC50 in cancer cells, pancreas; details: Pancreas tumor cell lines; incubated at least 24 hours
Description: as §1

[10] = test system: melanoma B16 and 140 cells, Leukemia cells (K562, M), and colon HT-29 cells; experiment: Anti-clonogenic activity in various cancer cells; details: FIG. 3; compared against Ecyd and Gemzar
Description: To determine the anti-clonogenic activity of contemplated compounds in various cancer cells experiments were conducted. […] Here again, 4-amino-5-oxo-8-(β-D-ribofuranosyl)pyrido[2,3-d]pyrimidine was used as a representative compound of contemplated compounds and compared against Ecyd and Gemzar.

NB4 cells (Leukemia) = experiment: Induction of apoptosis, histone-DNA ELISA; details: FIGS. 4A and 4B
Description: (§2) In order to determine how contemplated compounds interact with cancer cells, NB4 cells (Leukemia) and Prostate 81 (prostate cancer cells) cells were incubated with 4-amino-5-oxo-8-(β-D-ribofuranosyl)pyrido[2,3-d]pyrimidine, Ecyd, and Gemzar, and apoptosis was monitored by histone-DNA ELISA.

[11] = test system: Prostate 81 (prostate cancer cells); experiment: Induction of apoptosis, histone-DNA ELISA; details: Prostate 81 cells, FIGS. 4A and 4B
Description: as §2

K562 cells = experiment: Inhibition of RNA synthesis, H^3-Uridine incorporation; details: various time periods and concentrations, FIG. 5
Text: RNA synthesis was monitored in K562 cells using H^3-Uridine incorporation following a general protocol as outlined below.

RNA Polymerase I = RNA Polymerase I dependent RNA synthesis (28S and 18S rRNA processing); details: FIG. 6
Description: (§3) To further investigate the influence of contemplated compounds (here again represented by 4-amino-5-oxo-8-(β-D-ribofuranosyl)pyrido[2,3-d]pyrimidine) on RNA synthesis dependent on RNA Polymerase I, II, and III, experiments were conducted.

RNA Polymerase III = RNA Polymerase III dependent RNA synthesis; details: FIG. 6
Description: as §3

RNA Polymerase II = RNA Polymerase II dependent RNA synthesis; details: FIG. 7
Description: as §3

ERK = experiment: MEK-ERK phosphorylation, autoradiograph, NB4 leukemic cells; details: FIG. 8
Description: (§4) To investigate the possibility of activation of the MEK-ERK signal transduction pathway by contemplated compounds an experiment was conducted. […] Consequently, it is contemplated that the compounds according to the inventive subject matter may induce apoptosis through activation of MEK (which can be abolished by inhibitors of the MEK-ERK pathway).

MEK = experiment: as above; details: FIG. 8
Description: as §4

Raf = experiment: as above; details: FIG. 8
Description: as §4

EC50 [1]: 18 nM
EC50 (Prostate: PC-3, DU-145): 19 nM
EC50 [2]: 44 nM
EC50 [3]: 21 nM
EC50 [4]: 30 nM
EC50 [5]: 125 nM
EC50 [6]: 16 nM
EC50 [7]: 68 nM
EC50 [8]: 34 nM
EC50 [9]: 288 nM
EC50 (Pancreas: PaCa-2, PANC-1): 188 nM
Structure (SMILES): Nc1ncnc2c1c(=O)ccn2[C@@H]1O[C@H](CO)[C@@H](O)[C@H]1O [4-amino-5-oxo-8-(β-D-ribofuranosyl)pyrido[2,3-d]pyrimidine]
anti-clonogenic activity [10]: significant anti-clonogenic activity
induction of apoptosis (NB4 cells (Leukemia)): induce apoptosis in a dose dependent manner
induction of apoptosis [11]: induce apoptosis in a dose dependent manner
inhibition of RNA synthesis (K562 cells): inhibition of RNA synthesis
inhibition of processing of 28S and 18S rRNA (RNA Polymerase I): may inhibit processing of 28S and 18S rRNA
inhibition of RNA Polymerase III (RNA Polymerase III): fail to significantly inhibit RNA Polymerase III
inhibition of RNA-Polymerase II dependent RNA synthesis (RNA Polymerase II): inhibit RNA-Polymerase II dependent RNA synthesis in a concentration dependent manner
phosphorylation of ERK (ERK): phosphorylation of MEK and ERK
phosphorylation of MEK (MEK): enhance phosphorylation of MEK
phosphorylation of Raf (Raf): do not enhance phosphorylation of Raf
